Data published in US20250017889A1, “INHIBITORS OF P1B-TYPE ATPASES” (THE CURATORS OF THE UNIVERSITY OF MISSOURI, priority 2021, published 2025).

Columns and labels:
[1] = target: T1, ATP7B (Homo sapiens, UniProt P35670); assay: Microscale thermophoresis (MST) binding to GFP-ATP7B in HEK293 cell lysates; settings: MST analysis; read-out: affinity for ATP7B
T1 construct: expressed in transfected cells; host or cells: HEK293 (detergent-free lysate)
T1 sequence (P35670 1-1465): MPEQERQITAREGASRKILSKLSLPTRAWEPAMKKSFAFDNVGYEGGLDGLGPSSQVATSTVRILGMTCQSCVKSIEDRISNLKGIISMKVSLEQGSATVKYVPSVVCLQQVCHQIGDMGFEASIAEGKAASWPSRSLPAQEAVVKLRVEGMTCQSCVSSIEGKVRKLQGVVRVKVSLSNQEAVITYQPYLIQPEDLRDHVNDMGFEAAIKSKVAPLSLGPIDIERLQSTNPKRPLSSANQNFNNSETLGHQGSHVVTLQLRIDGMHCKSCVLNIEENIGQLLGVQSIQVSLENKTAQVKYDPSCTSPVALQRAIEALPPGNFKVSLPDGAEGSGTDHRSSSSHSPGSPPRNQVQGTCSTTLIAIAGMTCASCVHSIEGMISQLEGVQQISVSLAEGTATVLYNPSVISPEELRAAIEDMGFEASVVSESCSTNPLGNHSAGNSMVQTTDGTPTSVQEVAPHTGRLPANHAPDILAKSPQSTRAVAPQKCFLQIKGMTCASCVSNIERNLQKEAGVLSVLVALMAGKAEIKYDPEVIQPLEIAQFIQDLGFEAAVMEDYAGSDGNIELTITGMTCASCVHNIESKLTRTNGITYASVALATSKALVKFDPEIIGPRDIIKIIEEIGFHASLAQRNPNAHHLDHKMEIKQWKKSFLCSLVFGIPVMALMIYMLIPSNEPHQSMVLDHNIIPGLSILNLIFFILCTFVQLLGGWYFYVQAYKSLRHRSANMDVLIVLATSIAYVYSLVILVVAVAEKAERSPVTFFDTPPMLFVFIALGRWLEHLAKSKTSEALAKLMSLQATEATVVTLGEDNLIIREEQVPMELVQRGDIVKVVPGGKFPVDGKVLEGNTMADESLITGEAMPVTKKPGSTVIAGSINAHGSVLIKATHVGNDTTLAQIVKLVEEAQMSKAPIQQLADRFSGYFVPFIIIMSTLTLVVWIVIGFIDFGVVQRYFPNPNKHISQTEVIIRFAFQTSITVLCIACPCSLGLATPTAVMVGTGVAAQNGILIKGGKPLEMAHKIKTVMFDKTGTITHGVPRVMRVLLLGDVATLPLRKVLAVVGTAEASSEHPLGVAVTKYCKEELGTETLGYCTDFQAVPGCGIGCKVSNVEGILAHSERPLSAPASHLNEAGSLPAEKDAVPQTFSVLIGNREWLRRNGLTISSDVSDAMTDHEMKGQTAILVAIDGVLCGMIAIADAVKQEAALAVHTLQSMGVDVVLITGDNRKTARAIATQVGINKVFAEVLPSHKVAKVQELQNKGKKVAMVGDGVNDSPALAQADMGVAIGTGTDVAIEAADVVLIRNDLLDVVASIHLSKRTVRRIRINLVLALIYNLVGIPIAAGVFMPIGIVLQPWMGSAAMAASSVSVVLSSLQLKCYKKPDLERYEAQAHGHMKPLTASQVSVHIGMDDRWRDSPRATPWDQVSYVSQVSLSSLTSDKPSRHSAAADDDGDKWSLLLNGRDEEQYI
Text: Coordinating residues D935 and E798 are predicted to bind copper during transport.

[2] = test system: Cu^S cells complemented with ATP7B; assay: Copper toxicity in Cu^S cells complemented with ATP7B; format: cell-based; settings: 10 μM, 50% cytotoxic copper concentration
Text: 8A illustrates a copper sensitive fibroblast cell line (Cu^S) generated by deleting genes encoding ATP7A, metallothionein-I (MT-I) and metallothionein-II (MT-II). Cu^S cells cannot be propagated in regular medium (DMEM) unless a copper chelator (BCS) is supplied to the medium.
Cu^S cell lines were derived that were complemented by either ATP7A, ATP7B or MT-II.

[3] = test system: 4T1 breast cancer cells and LLC lung cancer cells; assay: In vitro scratch assay of cell motility (gap closure); format: cell-based; settings: 10 μM
Text: LOX activity is known to be important for the motility of cancer cells. In this assay, a gap (scratch) was created in a confluent monolayer of cells and closure of the gap in the presence or absence of MKV3 was monitored by video microscopy. […] Dashed lines indicate scratch starting points (12A and 12C). […] The requirement for ATP7A in cancer cell motility is consistent with its role in activation of lysyl oxidase enzymes.

[4] = test system: 4T1, B16 and HEK293 cell lines; assay: Cellular copper concentrations by ICP-MS; format: cell-based; settings: 10 μM, 24 hours
Procedure: Since ATP7A functions in copper export from cells, an inhibitor of ATP7A activity would be expected to increase cellular copper concentrations. […] After 24 hours, cellular copper concentrations were measured using inductively coupled plasma mass spectroscopy (ICP-MS).

[5] = test system: 4T1, B16 and LLC cells; assay: Sensitivity of cells to elevated copper concentrations; format: cell-based; settings: 10 μM, 48 h
Text: It is well-known that copper export via ATP7A is the major mechanism by which cells are protected against rising copper levels, which is facilitated by Cu-stimulated trafficking of ATP7A from the trans-Golgi to the plasma membrane. Therefore, a predicted consequence of an ATP7A inhibitor would be an increase of the sensitivity of cells to high copper concentrations.

[6] = test system: 4T1 mammary cancer cells; assay: Orthotopic 4T1 mammary tumor growth and lung metastasis in mice; format: in vivo, BALB/c mice
[7] = test system: wild type S. aureus (CopA and CopB); assay: Growth of wild type methicillin-resistant Staphylococcus aureus; format: cell-based
Procedure: (§1) Methicillin-resistant Staphylococcus aureus (MRSA) is a human pathogen that expresses two Cu-transporting P1B-type ATPases, CopA and CopB, which are known to enhance the virulence of this bacterium. 19A illustrates CopA and CopB copper exporters at the plasma membrane of S. aureus. […] The growth of the ΔcopA/ΔcopB strain was inhibited by approximately 50% when copper alone (50 μM) was added to the culture medium.
(§2) Wild type MRSA expresses two copper-exporting P1B-type ATPases, CopA and CopB that are required for copper tolerance (FIG. 19A). […] The same experiment was performed using MRSA in which both CopA and CopB genes were deleted (ΔcopA/ΔcopB). Consistent with the known role of CopA and CopB in copper tolerance, the growth of the ΔcopA/ΔcopB strain was inhibited by approximately 50% when copper alone (50 μM) was added to the culture medium (FIG. 19C).

[8] = test system: ΔcopA/ΔcopB strain of S. aureus; assay: Growth of copper-sensitive ΔcopA/ΔcopB mutant strain of S. aureus; format: cell-based, Staphylococcus aureus; settings: MKV3 with copper 50 μM
Procedure: as §1, §2

[9] = intravenous 50 mg/kg every Tuesday and Thursday for 3 weeks
[10] = subcutaneous 50 mg/kg every Monday, Wednesday and Friday for 3 weeks

N#CC(C(=O)Nc1cccc(C(F)(F)F)c1)C(=S)Nc1ccccc1Cl (centres unmarked) [MKV3]
Kd [1]: 76 nM
copper toxicity [2]: enhanced copper toxicity
rate of gap closure ([3]; 4T1 cells): significantly reduced
rate of gap closure ([3]; LLC cells): significantly reduced
cellular copper concentrations [4]: significantly increased
copper toxicity [5]: strongly augmented copper toxicity
metastatic lung burden [6, 9]: reduced
weights of 4T1 primary tumors [6, 9]: reduced
lung metastasis [6, 10]: significantly reduced
primary tumor growth [6, 10]: significantly reduced
sensitivity of wild type S. aureus to silver [7]: increases the sensitivity
growth of wild type S. aureus ([7]; MKV3 0.5 μM alone): not affected
growth of wild type S. aureus ([7]; MKV3 0.5 μM and copper 50 μM in combination): significant inhibition of growth
copper sensitivity in the ΔcopA/ΔcopB strain [8]: did not increase copper sensitivity
